One assay has as its system MDA-MB-453 cells. As to the kind of experiment: MDA-MB-453 cell growth inhibition test (SRB assay). Particulars: growth inhibition at 2000 nM, 69.5 h. It is filed as cell-based, human. In short, it runs like this: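 MDA-MB-453 cells (7000/well) in L15 with 10% FBS were seeded overnight, then exposed to compound for 69.5 h at 37 °C and 5% CO2. After TCA fixation and SRB staining, dye was solubilised in Tris and OD read at 570 nm. Inhibition = (PC−n)/(PC−NC)×100%.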

For another assay, the system named is DU-145 cells. As to the kind of experiment: DU-145 cell growth inhibition test (MTT assay). Particulars: 72 h. It is filed as cell-based. The method, then:
DU-145 Cell Growth Inhibition Test (MTT Assay)
(§1) II. Reagents and Consumable Materials
Culture medium: 90% EMEM+10% FBS (fetal calf serum); Pancreatin (0.25% (w/v) solution was formulated with PBS, 0.53 mM of EDTA was added in the formulation); PBS; 96-well culture plate.
(§2) 1. A plate (10 cm) of cells in logarithmic growth phase that were normally cultured was collected;
(§3) 2. The culture solution was sucked out. The plate was washed with 5 mL of PBS once or twice;
(§4) 3. PBS was sucked out. 1.5 mL of 0.25% pancreatin was added to the plate to infiltrate the cells for 1 min;
(§5) 4. The culture plate was placed in an incubator. Digestion was carried out for about 1 min at 37° C.;
5. 3 mL of complete culture solution was added to the culture plate to stop the digestion. The cells were carefully scoured with micropipette (1 mL) to give a uniform cell suspension. The suspension was implanted into a 96-well cell culture disc by 4000 cells/100 μL per well. The culture plate was incubated overnight under 5% CO2 at 37° C. In day 2, 100 μL of culture solution comprising a compound was added in each well. The plate was further incubated for 72 h under 5% CO2 at 37° C.;
(§6) 6. The culture solution was sucked out;
7. 100 μL of serum-free culture solution containing 0.5 mg/mL MTT was added in each well. The plate was incubated for 3 h;
(§7) 8. The culture solution was carefully sucked out;
(§8) 9. 100 μL of DMSO was added in each well and vibrated to dissolve;
(§9) 10. OD values were determined at 490 nM.
(§10) IV. Results and Treatments
(§11) 1. Calculation of Relative Inhibition Ratio The inhibition ratio of a compound on cell growth=(PC−n)/(PC−NC)×100%
(§12) PC: OD values of cells after normal growth in control wells without a compound;
(§13) n: OD values of cells after growth in test wells with a compound;
(§14) NC: Background OD values of blank wells without a compound and cells.

A further assay relates to 22Rv1 cells. As to the kind of experiment: 22Rv1 cell growth inhibition test (SRB assay). Type of assay: cell-based, human. Particulars: growth inhibition at 222 nM, 73 h. The essentials:
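Human prostate cancer 22Rv1 cells seeded at 7000 cells/well, incubated overnight, then exposed to compound for 73 h at 37° C, 5% CO2. TCA-fixed cells stained with SRB, dye dissolved in 10 mM Tris, OD read at 570 nm. Inhibition = (PC−n)/(PC−NC)×100% against untreated and cell-free blank wells.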

Another assay concerns B16 cells. As to the kind of experiment: B16 cell growth inhibition test (MTT assay). It is filed as cell-based, mouse. Particulars: 72 h. The procedure: B16 Cell Growth Inhibition Test (MTT Assay)
as §1
Culture medium: 90% RPMI1640+10% FBS (fetal calf serum); Pancreatin (0.25% (w/v) solution was formulated with PBS, 0.53 mM of EDTA was added in the formulation); PBS; 96-well culture plate.
as §2, §3, §4, §5
5. 3 mL of complete culture solution was added to the culture plate to stop the digestion. The cells were carefully scoured with micropipette (1 mL) to give a uniform cell suspension. The suspension was implanted into a 96-well cell culture disc by 2500 cells/100 μL per well. The culture plate was incubated overnight under 5% CO2 at 37° C. In day 2, 100 μL of culture solution comprising a compound was added in each well. The plate was further incubated for 72 h under 5% CO2 at 37° C.;
as §6
7. 100 μl of serum-free culture solution containing 0.5 mg/mL MTT was added in each well. The plate was incubated for 3 h;
as §7, §8, §9, §10, §11, §12, §13, §14

The next assay concerns MCF-7 cells. As to the kind of experiment: MCF-7 cell growth inhibition test (SRB assay). Type of assay: cell-based, human. Conditions: 73 h. The method, then:
MCF-7 Cell Growth Inhibition Test (SRB Assay)
as §1
Culture medium: 90% EMEM+10% FBS; Pancreatin (0.25% (w/v) solution was formulated with PBS, 0.53 mM of EDTA was added in the formulation); PBS; 96-well culture plate.
as §2, §3
3. 1.5 mL of 0.25% pancreatin was added to the plate to infiltrate the cells;
4. The pancreatin was sucked out. The culture plate was placed in an incubator. Digestion was carried out for about 3 min at 37° C.;
5. 4 mL of complete culture solution was added to the culture plate to stop the digestion. The cells were carefully scoured with micropipette (1 mL) to give a uniform single cell suspension. The suspension was implanted into a 96-well cell culture plate by 10000 cells/100 μL per well. The culture plate was incubated overnight under 5% CO2 at 37° C. In day 2, 100 μL of culture solution comprising a compound was added in each well. The plate was further incubated for 73 h under 5% CO2 at 37° C.;
6. The culture solution was sucked out. 100 uL of TCA fixed cells which were diluted to 10% were added to each well. The plate was kept in a refrigerator for 1 h at 4° C.
7. TCA stationary liquid was sucked out. Each well was washed with 150 μL of ddH2O five times;
8. After the stationary liquid was cleansed, the plate was dried in the air at the room temperature;
9. 60 μL of SRB staining solution was added in each well. The well was stained for 15 min at the room temperature;
10. The SRB staining solution was sucked out. Each well was washed with 150 μL of 1% glacial acetic acid five times;
11. After the SRB staining solution was cleansed, the plate was dried in the air at the room temperature;
12. 100 μL of 10 mM Tris was added in each well. The plate was vibrated to dissolve out SRB;
13. OD values were determined at 570 nM.
as §10
1. Calculation of Relative Inhibition Ratio The inhibition ratio of a compound on cell growth=(PC−n)/(PC−NC)×100% […]

For the compound `COc1cccc2c1C(=O)c1c(O)c3c(c(O)c1C2=O)CC(O)(C(=O)COC(=O)CCC(=O)NCCOCCO)CC3OC1CC(n2cccc2)C(O)C(C)O1` (stereo not shown) [Example 62], the “Inhibition Ratio (%)” value in the assay with MDA-MB-453 cells was 83.7%; in the assay on 22Rv1 cells it was 57%. Moreover, the IC50 with DU-145 cells stood at 34 nM; with B16 cells, 3 nM.
In the case of `COc1cccc2c1C(=O)c1c(O)c3c(c(O)c1C2=O)CC(O)(C(=O)COC(=O)CCC(=O)O)CC3OC1CC(n2cccc2)C(O)C(C)O1` (stereo not shown) [Compound A, 3′-pyrrolyldoxorubicin-14-oxo-succinic acid monoester, reference compound], the figures for the IC50 in the assay on DU-145 cells, with B16 cells and in the assay on MCF-7 cells were 99 nM, 32 nM and 785 nM, respectively.
On to `CC(=O)O.COc1cccc2c1C(=O)c1c(O)c3c(c(O)c1C2=O)CC(O)(C(=O)COC(=O)CCC(=O)NCCCN1CCN(C)CC1)CC3O[C@H]1C[C@H](n2cccc2)[C@H](O)[C@H](C)O1` (stereo partly drawn) [Example 81, 10-((3′-(pyrrol-1-yll)-2′,3′,6′-trideoxy-alphal-l-lyxo-hexylpyranyl)oxy)-7,8,9,10-tetrahydro-6,8,11-trihydroxy-13-oxo-14-(4-((3-(4-methylpiperazin-1-yl)propyl)amino)-4-oxo-butyrato)-1-methoxy-5,12-naphthalenedione acetate], for which the “Inhibition Ratio (%)” value in the assay on MDA-MB-453 cells was found to be 72%; in the assay with 22Rv1 cells it was 56.5%. Besides, the IC50 with MCF-7 cells is 225 nM.

For the origin of these results see patent US9670242B2, “Tetracyclic anthraquinone derivatives” (Tianjin Hemay Bio-Tech Co., Ltd, priority 2012, dated 2017).
